Reference: PMC6670186, “Novel prodrugs of decitabine with greater metabolic stability and less toxicity” (Clinical Epigenetics, 2019)
Marks after values point to notes of the source that are not given here.

Experiments:
[1] = tested on: Cytidine deaminase (CDA); set-up: method as in J. Clinical Investigation, 1974, 53(3), 922-931; conditions: substrate of CDA; ref J. Clinical Investigation, 1974, 53(3), 922-931; cited from earlier work
[2] = Partition coefficient (log P), shake-flask method, n-octanol/PBS; assay type: physicochemical
Description: The method employed HPLC with the following conditions: ZORBAX Bonus C18 column (4.6 × 150 mm, 3 μm); eluent: A = 10 mM HCO2NH4, B = acetonitrile, A:B = 50:50 (an isocratic mode for 5 min), and A:B = 99:1–20:80 (a gradient mode for 15 min); flow rate = 1.0 mL/min; oven temperature = 40 °C; detection = 240 nm.

[3] = Stability in phosphate-buffered saline; assay type: physicochemical; conditions: for t1/2 in PBS: PBS solution at 37°C; for Stability t1/2 in PBS: PBS 37 °C, 20** + x h, 20 h = t1/2 in PBS of DAC, x = OR compound
Description: Five microliters of DAC derivatives (1.0 mg/100 μL of DMSO) was added to 200 μL of a stirred PBS solution at 37 °C. The mixture was stirred continuously for 1 day. The remaining of the starting derivatives was assayed using the HPLC analytical conditions as described above.

[4] = biological target: T1, human recombinant cytidine deaminase (Homo sapiens, UniProt P32320); assay: Stability in the presence of cytidine deaminase; assay type: in vitro ADME; conditions: for Enzymatic stability, retained: cytidine deaminase, after 2 h
T1 construct: His; purchased AT Gen Co. Ltd; Seoul, Korea
T1 sequence (P32320 whole entry): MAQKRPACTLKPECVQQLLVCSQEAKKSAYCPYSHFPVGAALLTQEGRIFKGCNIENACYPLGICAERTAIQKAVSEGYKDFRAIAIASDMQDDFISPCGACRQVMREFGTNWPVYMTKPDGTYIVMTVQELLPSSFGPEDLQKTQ
Excerpt: The remaining of the starting derivatives were continuously assayed using HPLC analytical conditions as described above.

[5] = Chemical stability in a protic solvent; assay type: physicochemical
[6] = Pharmacokinetics in mice, intraperitoneal; assay type: in vivo; conditions: for AUC 0 → lim, DAC / AUC 0 → lim, Total / AUC 0 → lim, OR compound: plasma; for AUC 0 → lim, DAC: DAC (metabolite for OR compounds), equimolar dose; for AUC 0 → lim, Total: OR compound + metabolite DAC; for AUC 0 → lim, OR compound: dose equimolar to 0.20 mg/kg DAC
Description: Six-week-old female ICR mice were intraperitoneally injected with 0.20 mg/kg of DAC, 0.29 mg/kg of OR-2003, 0.32 mg/kg of OR-2009, 0.30 mg/kg of OR-2100, and 0.31 mg/kg of OR-2102. The doses were decided so that equivalent amounts of molar concentration would be administered. The blood plasma was collected before and at 5, 15, 30, 45, 60, 90, and 120 min after the treatment. All experimental procedures were approved by the Committee of National Cancer Center.

[7] = tested on: exogenous UCHL1 promoter and OSR2 promoter CpG island; assay: Quantitative methylation-specific PCR of marker genes; assay type: cell-based, Human; conditions: qMSP
Description: One microgram of EcoRV-digested genomic DNA was treated with sodium bisulfite as described previously. Bisulfite-treated DNA was resuspended in 40 μL of TE-buffer (10 mM Tris, pH 8.0; 1 mM EDTA, pH 8.0), and 1 μL was used for quantitative methylation-specific PCR (qMSP) using primers specific to methylated and unmethylated target loci, including MetLuc-UCHL1 promoter, OSR2 promoter, and UCHL1 promoter (Additional file 1: Table S1). As a fully unmethylated DNA control, genomic DNA from peripheral blood cells of a healthy person was amplified twice using a GenomiPhi DNA amplification kit (GE Healthcare Life Sciences; Little Chalfont, UK). As a fully methylated DNA control, the fully unmethylated DNA was methylated by SssI methylase (New England Biolabs; Beverly, MA).

Row | Compound | Log PO/PBS [2] | t1/2 in PBS [3] | also measured
1 | Nc1ccn([C@H]2C[C@H](O)[C@@H](CO)O2)c(=O)n1 [2'-deoxycytidine] |  |  | Michaelis constant [1]: 26 µM
2 | Nc1nc(=O)n([C@@H]2O[C@H](CO)[C@@H](O)[C@H]2O)cc1F [5-fluorocytidine] |  |  | Michaelis constant [1]: 30 µM
3 | Nc1ncn([C@@H]2O[C@H](CO)[C@@H](O)[C@H]2O)c(=O)n1 [AZA, 5-azacytidine] |  |  | Michaelis constant [1]: 430 µM
4 | Nc1ncn([C@H]2C[C@H](O)[C@@H](CO[Si](Cc3ccccc3)(Cc3ccccc3)Cc3ccccc3)O2)c(=O)n1 [Benzyl, Benzyl, Benzyl] | 4.69 | > 24 h | 
5 | CC[Si](C)(CC)OC[C@H]1O[C@@H](n2cnc(N)nc2=O)C[C@@H]1O [Ethyl, Ethyl, Methyl] | 1.49 | 4 h | enzymatic stability in the presence of CDA [4]: stable in the presence of CDA
6 | CC[Si](CC)(OCC1OC(n2cnc(N)nc2=O)CC1O)C1CCCC1 (stereo not drawn) [Ethyl, Ethyl, c-Pentyl] | 3.10 | > 24 h | 
7 | CC[Si](CC)(OC[C@H]1O[C@@H](n2cnc(N)nc2=O)C[C@@H]1O)C(C)C [Ethyl, Ethyl, i-Propyl] | 2.56 | > 24 h | 
8 | C[Si](C)(Cc1ccccc1)OC[C@H]1O[C@@H](n2cnc(N)nc2=O)C[C@@H]1O [Methyl, Methyl, Benzyl] | 1.73 | 2.5 h | enzymatic stability in the presence of CDA [4]: gradually degraded by CDA
9 | CC[Si](C)(C)OC[C@H]1O[C@@H](n2cnc(N)nc2=O)C[C@@H]1O [Methyl, Methyl, Ethyl] |  | 0.9 h | 
10 | C[Si](C)(C)OC[C@H]1O[C@@H](n2cnc(N)nc2=O)C[C@@H]1O [Methyl, Methyl, Methyl] |  | Unstable | stability in a protic solvent [5]: unstable
11 | C[Si](C)(OCC1OC(n2cnc(N)nc2=O)CC1O)C1CCCC1 (stereo not drawn) [Methyl, Methyl, c-Pentyl] | 2.16 | 15 h | 
12 | CC(C)[Si](C)(C)OC[C@H]1O[C@@H](n2cnc(N)nc2=O)C[C@@H]1O [Methyl, Methyl, i-Propyl] | 1.48 | 12 h | enzymatic stability in the presence of CDA [4]: stable in the presence of CDA
13 | CCCC[Si](C)(C)OC[C@H]1O[C@@H](n2cnc(N)nc2=O)C[C@@H]1O [Methyl, Methyl, n-Butyl] | 4.56 | 1.3 h | 
14 | CCCCCCCC[Si](C)(C)OCC1OC(n2cnc(N)nc2=O)CC1O (stereo not drawn) [Methyl, Methyl, n-Octyl] |  | 1.5 h | 
15 | CC(C)(C)[Si](C)(C)OC[C@H]1O[C@@H](n2cnc(N)nc2=O)C[C@@H]1O [Methyl, Methyl, t-Butyl] | 1.91 | > 24 h | stability in a protic solvent [5]: stable
16 | C[Si](C)(OC[C@H]1O[C@@H](n2cnc(N)nc2=O)C[C@@H]1O)C1CCCCC1 [OR-2009] | 2.52 | 14 h | half-life (time to release DAC) [3]: ≥ 14 h; Stability t1/2 in PBS [3]: 20** + 14 h; Enzymatic stability, retained [4]: Retain 75% after 2 h; total AUC of OR compound and metabolite DAC compared with DAC [6]: larger AUCs than that of DAC; AUC 0 → lim, DAC [6]: 0.238 µM·h; AUC 0 → lim, Total [6]: 0.552 µM·h; AUC 0 → lim, OR compound [6]: 0.314 µM·h
17 | CCC[Si](CC)(CC)OC[C@H]1O[C@@H](n2cnc(N)nc2=O)C[C@@H]1O [OR-2102] | 2.54 | 19 h | half-life (time to release DAC) [3]: ≥ 14 h; Stability t1/2 in PBS [3]: 20** + 19 h; enzymatic stability in the presence of CDA [4]: gradually degraded by CDA; Enzymatic stability, retained [4]: Retain 46% after 2 h; AUC 0 → lim, DAC [6]: 0.285 µM·h; AUC 0 → lim, Total [6]: 0.366 µM·h; AUC 0 → lim, OR compound [6]: 0.081 µM·h
18 | Nc1ncn([C@H]2C[C@H](OP(=O)(O)OC[C@H]3O[C@@H](n4cnc5c(=O)[nH]c(N)nc54)C[C@@H]3O)[C@@H](CO)O2)c(=O)n1 [guadecitabine, reference compound] |  |  | dose with strongest effect of DNA demethylation [7]: 1.0 µM; DNA demethylation of exogenous UCHL1 promoter and OSR2 promoter CpG island ([7]; 0.0 to 10.0 μM): weaker demethylation effect than OR-2003 and OR-2100
19 | CCC[Si](CCC)(CCC)OC[C@H]1O[C@@H](n2cnc(N)nc2=O)C[C@@H]1O [n-Propyl, n-Propyl, n-Propyl] | 5.20 | 22 h | 
